According to ChEMBL document CHEMBL3616465, “Neutrophil elastase inhibitors for the treatment of (cardio)pulmonary diseases: Into clinical testing with pre-adaptive pharmacophores” (Bioorg Med Chem Lett, 2015):
pIC50, pKi: −log10 of the molar value.

Tests used:
[1] = Half life in human hepatocytes at 1 uM by LC/MS-MS analysis
Neutrophil elastase [2] = biological target: T1, Neutrophil elastase (Homo sapiens, UniProt P08246); assay: Inhibition of human neutrophil elastase using MeO-Succ-Ala-Ala-Pro-Val-AMC as substrate after 30 mins by fluorescence assay
T1 sequence (P08246 whole entry): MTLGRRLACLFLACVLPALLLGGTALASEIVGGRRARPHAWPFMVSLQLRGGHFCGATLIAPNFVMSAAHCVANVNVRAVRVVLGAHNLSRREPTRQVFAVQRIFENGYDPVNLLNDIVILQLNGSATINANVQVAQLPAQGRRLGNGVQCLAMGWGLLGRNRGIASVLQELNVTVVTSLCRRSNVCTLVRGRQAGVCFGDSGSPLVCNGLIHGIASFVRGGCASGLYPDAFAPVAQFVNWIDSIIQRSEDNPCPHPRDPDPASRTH

Neutrophil elastase [3] = biological target: T1, Neutrophil elastase; assay: Inhibition of neutrophil elastase in human plasma using MeOSuc-Ala-Ala-Pro-Val-AMC as substrate by fluorescence assay
[4] = biological target: T2, Neutrophil elastase (Homo sapiens) (UniProt P08246); settings: Blood
T2 sequence (whole entry): T1 sequence (P08246 whole entry)
Description: (§1) Inhibition of neutrophil elastase in human whole blood using MeO-Succ-Ala-Ala-Pro-Val-pNA as substrate after 30 mins by colorimetric analysis

Homo sapiens [5] = organism: Homo sapiens; assay: Selectivity ratio of IC50 for human PR3 to IC50 for human neutrophil elastase
[6] = Selectivity ratio of IC50 for mouse neutrophil elastase to IC50 for human neutrophil elastase
Neutrophil elastase [7] = biological target: T1, Neutrophil elastase; assay: Inhibition of human neutrophil elastase using MeO-Suc-Ala-Ala-Pro-Val 7-amido-4-methylcoumarin as substrate preincubated for 15 mins followed by substrate addition measured after 90 mins
Homo sapiens [8] = assay: Inhibition of sputum neutrophil count in cystic fibrosis patient at 60 mg/kg, po bid measured at 24 hrs relative to control; assay type: functional
Homo sapiens [9] = organism: Homo sapiens; assay: Selectivity ratio of IC50 for human trypsin to IC50 for human neutrophil elastase
Homo sapiens [10] = organism: Homo sapiens; assay: Selectivity ratio of IC50 for human chymotrypsin to IC50 for human neutrophil elastase
Homo sapiens [11] = organism: Homo sapiens; assay: Selectivity ratio of IC50 for human CatG to IC50 for human neutrophil elastase
[12] = Selectivity ratio of IC50 for rat neutrophil elastase to IC50 for human neutrophil elastase
[13] = Selectivity ratio of IC50 for porcine pancreatic elastase to IC50 for human neutrophil elastase
Neutrophil elastase [14] = biological target: T1, Neutrophil elastase
Description: as §1

Pancreatic elastase = Pancreatic elastase (Sus scrofa, UniProt P08419+P00772); assay: Inhibition of porcine pancreatic elastase using as succinyl-Ala-Ala-Ala-p-nitroanilide as substrate measured every 1 min by spectrophotometric analysis; assay type: protein assay
[15] = Half life in po dosed human administered as qd; assay type: ADME, organism-based; settings: in vivo
Neutrophil elastase [16] = biological target: T1, Neutrophil elastase; assay: Inhibition of human neutrophil elastase

Question: With `CS(=O)(=O)c1cc(C#N)ccc1[C@@H]1C2=C(CCC2=O)N(c2cccc(C(F)(F)F)c2)C(=O)N1CC#N` as the compound, how does the half-life at 1 µM [1] read?
Answer: Its half-life at 1 µM is greater than 2.17 h.

Question: And the pIC50 (Neutrophil elastase [2])?
Answer: The pIC50 was greater than 9.00.

Question: What about the pIC50 (Neutrophil elastase [3]) of the same compound?
Answer: Its pIC50 is greater than 9.00.

Question: For `CC(C)C[C@H]1C(=O)N(COC(=O)Cc2ccccc2Nc2c(Cl)cccc2Cl)S(=O)(=O)N1C`, which K [4] is on record?
Answer: The K was 9.8 ×10⁵ /M/s.

Question: With `Cc1c(-c2ccnn2C)cc(C(=O)NCc2ccc(S(C)(=O)=O)cn2)c(=O)n1-c1cccc(C(F)(F)F)c1` as the compound, how does the Ratio IC50 (Homo sapiens [5]) read?
Answer: Its Ratio IC50 is greater than 1900.

Question: What about the Ratio IC50 [6] of the same compound?
Answer: Its Ratio IC50 is 24.

Question: What about the pKi (Neutrophil elastase [7]) of the same compound?
Answer: Its pKi is 7.92.

Question: And the inhibition in vivo at 60 mg/kg (Homo sapiens [8])?
Answer: The inhibition in vivo at 60 mg/kg was 50%.

Question: And the Ratio IC50 (Homo sapiens [9])?
Answer: Its Ratio IC50 is greater than 2000.

Question: And the Ratio IC50 (Homo sapiens [10])?
Answer: Its Ratio IC50 is greater than 2000.

Question: And the Ratio IC50 (Homo sapiens [11])?
Answer: The Ratio IC50 was greater than 680.

Question: What about the Ratio IC50 [12] of the same compound?
Answer: Its Ratio IC50 is 18.

Question: And the Ratio IC50 [13]?
Answer: The Ratio IC50 was greater than 2000.

Question: With `COC(=O)C1=C(C)N(c2cccc(C(F)(F)F)c2)c2n[nH]c(=O)n2[C@@H]1c1ccc(C#N)cc1CCCN(C)C` as the compound, how does the pIC50 (Neutrophil elastase [2]) read?
Answer: The pIC50 was greater than 7.70.

Question: Which half-life at 1 µM [1] does the source give for `N#Cc1ccc([C@H]2NC(=O)N(c3cccc(C(F)(F)F)c3)C3=C2C(=O)CC3)cc1` here?
Answer: The half-life at 1 µM was greater than 2.17 h.

Question: Which half-life at 1 µM [1] does the source give for `CS(=O)(=O)c1cc(C#N)ccc1[C@@H]1C2=C(CCC2=O)N(c2cccc(C(F)F)c2)C(=O)N1C(=O)NC1CC1` here?
Answer: Its half-life at 1 µM is greater than 2.17 h.

Question: With `CCc1cc(OC)cc2nc(-c3cccnc3N3CC[C@H](N(C)C)C3)oc(=O)c12` as the compound, how does the pIC50 (Neutrophil elastase [14]) read?
Answer: The pIC50 was 8.15.

Question: For `CC(C)(C)C(=O)Oc1ccc(S(=O)(=O)Nc2ccccc2C(=O)NCC(=O)[O-])cc1.[Na+]`, which IC50 (Pancreatic elastase) is on record?
Answer: The IC50 was 5600 nM.

Question: Which half-life at 1 µM [1] does the source give for `CNC(=O)N1C(=O)N(c2cccc(C(F)(F)F)c2)C2=C(C(=O)CC2)[C@H]1c1ccc(C#N)cc1S(C)(=O)=O` here?
Answer: The half-life at 1 µM was greater than 2.17 h.

Question: What about the pIC50 (Neutrophil elastase [2]) of the same compound?
Answer: Its pIC50 is greater than 9.00.

Question: And the pIC50 (Neutrophil elastase [3])?
Answer: The pIC50 was greater than 9.00.

Question: For `CC1=C(C#N)[C@@H](c2ccc(C#N)cc2S(C)(=O)=O)N(C)C(=O)N1c1cccc(C(F)(F)F)c1`, which half-life [15] is on record?
Answer: Its half-life is 120 h.

Question: With `Cc1c(-c2ccnn2-c2ccc(C#N)cc2)cn2nc(NC(=O)CN(C)C)nc2c1-c1cccc(C(F)(F)F)c1` as the compound, how does the pIC50 (Neutrophil elastase [16]) read?
Answer: The pIC50 was greater than 7.70.
